Experimental data from paper PMC4153893, “Synergetic cytotoxic activity toward breast cancer cells enhanced by the combination of Antp-TPR hybrid peptide targeting Hsp90 and Hsp70-targeted peptide” (BMC Cancer, 2014).
Ends that are not written are not given here.

Assays:
cancer cells = settings: in the presence of 2-phenylethynesulfonamide; cited from earlier work
Description: It was recently reported that VER155008 could bind to the ...

[1] = system: Hsp70 / Hsp70 promoter in BT20 cells; experiment: Hsp70 expression (western blotting) and Hsp70 promoter activation (reporter assay, LV200 single-cell imaging); type: cell-based, human
Procedure: Western blotting was carried out as described previously. Briefly, protein extracts were prepared from cells lysed with reporter lysis buffer (Promega, Madison, WI, USA), separated by SDS-PAGE and transferred to nitrocellulose filters using the iBlot system (Invitrogen, Carlsbad, CA, USA) according to the manufacturer’s protocol. Quenched membranes were probed with antibodies and analyzed using an enhanced reagent of Chemi-Lumi One Super (Nacalai Tesque) with a LAS-3000 LuminoImage analyzer (Fujifilm, Tokyo, Japan). Densitometric analysis was performed by Multi Gauge software V3.0 (Fujifilm) using the bands obtained from western blotting, in which actin as the loading control was used for normalizing of each bands.
A reporter assay was carried out as described previously. […] The relative activity of firefly luciferase to Renilla luciferase activity was determined in triplicate (means ± SD) using the Dual-Glo Luciferase Assay System (Promega).
Stably transfected BT20 cells with pHsp70Pro-Luc were prepared after transient transfection with Lipofectamine LTX according to the manufacturer’s protocol in a selective medium containing 200 μg/ml hygromycine B (Nacalai Tesque). Luminescence images at the single-cell level were obtained using the LV200 luminescence imaging system (Olympus) as described previously. […]

BT20 cells = experiment: Cell viability assay (WST-8); type: cell-based, human
Procedure: (§1) Cell viability was determined by WST-8 assay as described previously. Briefly, cells were seeded onto 96-well plates at 2000–3000 cells/well overnight. After incubating with the test peptides, the cell viability assay was carried out using Living Cell Count Reagent SF (Nacalai Tesque) according to the manufacturer’s protocol. Absorbance was measured at 450 nm using a 96-well microplate reader (GE Healthcare Bioscience, Piscataway, NJ).

[2] = system: MDA-MB-231, BT20, BT474, and MDA-MB-361 cell lines; experiment: Cell viability assay (WST-8), summary over four breast cancer cell lines; type: cell-based, human; settings: MDA-MB-231, BT20, BT474, MDA-MB-361; summary of Table 1; read-out: IC50 values of Antp-TPR alone, range over four cell lines
Procedure: as §1

MDA-MB-231 cells = experiment: Cell viability assay (WST-8); type: cell-based, human; settings: 24 h
Procedure: as §1

MDA-MB-361 cells = experiment: Cell viability assay (WST-8); type: cell-based, human; settings: 24 h, mean of three independent observations each performed in triplicate, read-out: IC50 of Antp-TPR
Procedure: as §1

BT474 cells = experiment: Cell viability assay (WST-8); type: cell-based, human; settings: 24 h, mean of three independent observations each performed in triplicate, read-out: IC50 of Antp-TPR
Procedure: as §1

[3] = system: normal mammary epithelial cells (MCF-10A); experiment: Cell viability assay (WST-8); type: cell-based, human; settings: 24 h, R11-Hsp70 10 μM where present, compared with cancer cell lines
Procedure: as §1

[4] = system: BT20, MDA-MB-231, or MCF-10A cells; experiment: Cellular uptake by flow cytometry; type: cell-based, human; settings: BT20, MDA-MB-231, MCF-10A, Antp-TPR-TAMRA 10 μM, R11-Hsp70 or R11-Hsp70 scramble 10 μM, 30 min
Procedure: Flow cytometry assay was performed as described previously. […] The cell pellets were resuspended, and then flow cytometry analysis was performed by FACSCalibur (BD Bioscience, San Jose, CA, USA). Data were analyzed using CellQuest Software (BD Bioscience). Annexin V and PI staining was performed using Annexin V-Fluorescein Staining Kit (Wako Chemicals, Osaka, Japan) by multiparametric flow cytometry assay as described previously.

NS(=O)(=O)C#Cc1ccccc1 [2-phenylethynesulfonamide]
effect on the cytotoxic activity of 17-AAG (cancer cells): the cytotoxic activity of 17-AAG was increased

C=CCNC1=C2C[C@@H](C)C[C@H](OC)[C@H](O)[C@@H](C)/C=C(\C)[C@H](OC(N)=O)[C@@H](OC)/C=C\C=C(/C)C(=O)NC(=CC1=O)C2=O [17-AAG, 17-allylamino-demethoxygeldanamycin]
activation of the Hsp70 promoter ([1]; BT20 cells with pHsp70Pro-Luc, Antp-TPR 20 μM, R11-Hsp70 10 μM, 17-AAG 0.5 μM, luminometer 18 h and LV200 single-cell imaging): induced activation at the single-cell level | up-regulation of Hsp70 and the promoter activity of this protein ([1]; BT20 cells, 0.5 μM 17-AAG, 6 h or 18 h western blotting, promoter assay 18 h): induced both

N#Cc1ccc(COC[C@H]2O[C@@H](n3c(NCc4ccc(Cl)c(Cl)c4)nc4c(N)ncnc43)[C@H](O)[C@@H]2O)cc1 [VER155008, reference compound]
effect on the cytotoxic activity of 17-AAG (BT20 cells; 5 μM VER155008, WST-8): did not have any synergetic effect on the cytotoxic activity of 17-AAG | effect on the cytotoxic activity of Antp-TPR (BT20 cells; 5 μM VER155008, WST-8): cytotoxic activity of Antp-TPR toward cancer cells was increased

RQIKIWFQNRRMKWKKKAYARIGNSYFK [Antp-TPR]
IC50 [2]: 26 to 34 µM | IC50 (BT20 cells; 24 h, WST-8, mean of three independent observations each performed in triplicate, read-out: IC50 of Antp-TPR): 26.1 ± 3 µM | IC50 (MDA-MB-231 cells; WST-8, mean of three independent observations each performed in triplicate, read-out: IC50 of Antp-TPR): 31.2 ± 3 µM | IC50 (MDA-MB-361 cells): 33.8 ± 2.6 µM | IC50 (BT474 cells): 34.1 ± 2.7 µM | cytotoxic activity toward normal mammary epithelial cells [3]: less than that of these peptides against cancer cell lines

RRRRRRRRRRRGGGTPTYRASCFYHYK [R11-Hsp70scramble]
effect on the cytotoxic activity of Antp-TPR (BT20 cells; R11-Hsp70scramble 10 μM, 24 h): no effective increase in the cytotoxic activity of Antp-TPR | effect on the cytotoxic activity of Antp-TPR (MDA-MB-231 cells; R11-Hsp70scramble 10 μM): no effective increase in the cytotoxic activity of Antp-TPR

RRRRRRRRRRRGGGYCAYYSPRHKTTF [R11-Hsp70]
enhancement for cellular uptake of Antp-TPR [4]: higher than that of Antp-TPR by R11-Hsp70 scramble peptide | effect on the cytotoxic activity of 17-AAG (BT20 cells; R11-Hsp70 10 μM, 24 h): did not affect the cytotoxic activity of 17-AAG
